The subject of the experiment is Palmitoyl CoA oxidation in rat heart mitochondria. The experiment in a line: Mitochondrial assay: Palmitoyl CoA oxidation. In kind it is biochemical. The conditions noted are these: 16 microM 1-C14 palmitoyl CoA, 15 min at 30° C., read-out: Effect of Compounds of the Invention on Palmitoyl CoA Oxidation (IC50). The method, then:
Rat heart mitochondria were isolated by the method of Nedergard and Cannon (Methods in Enzymol. 55, 3, 1979).
Palmitoyl CoA oxidation—The Palmitoyl CoA oxidation was carried out in a total volume of 100 micro liters containing the following agents: 110 mM KCl, 33 mM Tris buffer at pH 8, 2 mM KPi, 2 mM MgCl2, 0.1 mM EDTA, 14.7 microM defatted BSA, 0.5 mM malic acid, 13 mM carnitine, 1 mM ADP, 52 micrograms of mitochondrial protein, and 16 microM 1-C14 palmitoyl CoA (Sp. Activity 60 mCi/mmole; 20 microCi/ml, using 5 microliters per assay). The compounds of this invention were added in a DMSO solution at the following concentrations: 100 micro molar, 30 micro molar, and 3 micro molar. In each assay, a DMSO control was used. After 15 min at 30° C., the enzymatic reaction was centrifuged (20,000 g for 1 min), and 70 microliters of the supernatant was added to an activated reverse phase silicic acid column (approximately 0.5 ml of silicic acid). The column was eluted with 2 ml of water, and 0.5 ml of the eluent was used for scintillation counting to determine the amount of C^14 trapped as C^14 bicarbonate ion.
Consider “(2R)-3-((3S)-3-methyl-4-{[5-(4-trifluoromethylphenyl)isoxazol-3-yl]methyl}-piperazinyl)-1-(2-methylbenzothiazol-5-yloxy)propan-2-ol”, for which the IC50 came out at 250 nM.

Take “(2R)-3-[(2S)-2-methyl-4-({2-[4-(trifluoromethyl)phenyl](1,3-oxazol-5-yl)}methyl)piperazinyl]-1-(2-methylbenzothiazol-5-yloxy)propan-2-ol”: the IC50 came out at 370 nM.

On to “(2R)-3-[(2S)-2-methyl-4-({5-[2-chlorophenyl]isoxazol-3-yl}methyl)piperazinyl]-1-(2-methylbenzothiazol-5-yloxy)propan-2-ol”, for which the half-maximal inhibitory concentration (IC50) was determined as 600 nM.

Consider “(2R)-3-[(2S)-2-methyl-4-({5-[4-(trifluoromethyl)phenyl](1,2,4-oxadiazol-3-yl)}methyl)piperazinyl]-1-(2-methylbenzothiazol-5-yloxy)propan-2-ol”, for which the IC50 came out at 250 nM.

With “(2R)-3-{(2S)-2-methyl-4-[(3-(2-thienyl)(1,2,4-oxadiazol-5-yl))methyl]piperazinyl}-1-(2-methylbenzothiazol-5-yloxy)propan-2-ol”, the IC50 was determined as 490 nM.

As for “(2R)-3-{(2S)-2-methyl-4-[(3-phenylisoxazol-5-yl)methyl]piperazinyl}-1-(2-methylbenzothiazol-5-yloxy)propan-2-ol”, the IC50 turned out to be 410 nM.

“(2R)-3-{(2S)-2-methyl-4-[(5-phenylbenzoxazol-2-yl)methyl]piperazinyl}-1-(2-methylbenzothiazol-5-yloxy)propan-2-ol”: the concentration for half-maximal inhibition (IC50) came out at 2100 nM.

With “(2R)-3-{(3S)-3-methyl-4-[(3-(4-methoxyphenyl)isoxazol-5-yl)methyl]piperazinyl}-1-(2-methylbenzothiazol-5-yloxy)propan-2-ol”, the IC50 came out at 740 nM.

As to “(2R)-3-{(3S)-3-methyl-4-[(5-(2-chlorophenyl)isoxazol-3-yl)methyl]piperazinyl}-1-(2-methylbenzothiazol-5-yloxy)propan-2-ol”, the IC50 stood at 60 nM.

Turning to “(2R)-3-{(3S)-3-methyl-4-[(5-(3,4-dichlorophenyl)isoxazol-3-yl)methyl]piperazinyl}-1-(2-methylbenzothiazol-5-yloxy)propan-2-ol”, the IC50 worked out at 250 nM.

For the substance “(2R)-3-{(3S)-3-methyl-4-[(5-(4-chlorophenyl)isoxazol-3-yl)methyl]piperazinyl}-1-(2-methylbenzothiazol-5-yloxy)propan-2-ol”, the IC50 worked out at 330 nM.

(Values after patent publication US7056924B2, “Substituted heterocyclic compounds” (CV Therapeutics, Inc., priority 2002, dated 2006).)
